Experimental data from patent publication US6218384A, “3-Oxo-pyrido(1,2-a)benzimidazole-4-carboxyl and 4-oxo-azepino(1,2-a)benzimidazole-5-carboxyl derivatives useful in treating central nervous system disorders” (Ortho-McNeil Pharmaceutical, Inc., priority 1997, dated 2001).
Where two headings read alike, the source gives them in different places.

Experiments:
[1] = molecular target: benzodiazepine site of the GABA-A receptor; test: Benzodiazepine Receptor Binding Assay (inhibition of 3H-flunitrazepam binding); details: ca. 3 nM 3H-flunitrazepam
[2] = Suppression of metrazol-induced convulsions; assay type: in vivo, male CD1 mice; details: Mus musculus, 0.5 h, mice
Method: Selected compounds of the invention were tested for their ability to reduce metrazol-induced convulsions in mice (Swinyard, E. A. J. Am. Pharm Assoc. 1949, 38, 201). Male CD1 mice, were fasted at least 16 hours, were divided into equal groups and test compounds or vehicle were administered parenterally. Water was not withheld except during the period of observations. At the time of suspected peak activity, anti-pentylenetetrazol (anti-metrazol) activity was evaluated by the subcutaneous administration of the CD90 dose of metrazol (the dose of metrazol was determined from the dose-response curve producing clonic convulsions in 90% of animals that received the corresponding vehicle for this experiment). Metrazol was dissolved in 0.9% sodium chloride solution, and its dose volume was 10 ml/kg. Animals were housed individually for observation of clonic convulsions, tonic convulsions and death for a period of 30 min. Test compounds that blocked the clonic seizure component of the convulsion in at least 50% of the animals were considered active. The biological assay was considered to be valid if the effects of a known anticonvulsant (positive control) were detected, within the same experiment. Activity was reported as percent reduction of clonic convulsions from the vehicle group. The ED50 values of active compounds were calculated by the method of probits (Finney, D. J. 1971. Probit Analysis. London: Cambridge University Press) and are listed in Tables 1 to 5.

[3] = Suppression of anxiety (punished licking, conflict test) in the adult male rat; assay type: in vivo, male rats
Method: The anxiolytic activity of selected compounds of the invention was assessed by determining their ability to release (disinhibit) behavior that had been suppressed by punishment (Vogel, J. R. et al. Psychopharmacology 1971, 21, 1). Male rats were deprived of water for 48 hours and were deprived of food for 24 hours prior to testing. After the first 24 hours of water deprivation, they were placed in the conflict chamber for a training period; wherein, they were allowed 200 unpunished licks from a bottle containing tap water. The experiment was run the next day. At the expected time of peak activity, the animals were placed in the chamber and allowed access to tap water. […] Their first lick initiates a 3-min test session. Subsequently,every 20th lick was punished by a 0.2-s shock delivered via the stainless-steel drinking-tube. Vehicle-treated control animals generally were willing to accept a median number of 3 to 8 shocks per test session. […] The Wilcoxon rank-sum test (Mann-WhitneyU-test) was used to test for an increase (p<0.05, 1-tailed) in the median number of shocks in drug-treated groups, compared to a concurrently run vehicle-treated group. The biological assay is considered to be valid if the effects of a known anxiolytic (positive control) are detected, within the same experiment. A compound was considered active if there is a significant difference in the median number of shocks tolerated between the drug-treated group and the control group. The MED was defined as the minimum dose of the drug-treatment as analyzed using the Wilcoxon rank-sum test (SAS; Statistical Analysis System, version 5.16). If the MED value is greater than 10, an active dose of the compound being tested had not been determined.

[4] = Table 1, 25° C., 10-20 min, >10,000 = not active
[5] = Table 1, ip, clonic convulsions after sc CD90 metrazol, >30 = active dose not determined, read-out: Metrazol (ip) ED50
[6] = Table 1, ip, minimum effective dose, >10 = active dose not determined, read-out: Conflict (ip) MED
[7] = Table 3, parenteral, clonic convulsions, read-out: Antimetrazol ED50
[8] = Table 3, minimum effective dose, read-out: Conflict MED
[9] = Table 5, parenteral, clonic convulsions, read-out: Antimetrazol ED50
[10] = Table 5, minimum effective dose, read-out: Conflict MED
[11] = Table 4, parenteral, clonic convulsions, read-out: Antimetrazol ED50
[12] = Table 4, minimum effective dose, read-out: Conflict MED

SMILES | IC50 [1, 4] [nM] | ED50 [2, 5] [mg/kg] | minimal effective dose [3, 6] [mg/kg] | other results
O=C1CCN2C(=C1C(=O)Nc1ncncn1)Nc1ccccc12 [compound 53] | 110 | > 10 | > 10 | 
CC(C)NC(=O)C1=C2Nc3ccccc3N2CCC1=O [compound 105] | 46 | > 10 | > 10 | 
O=C1CCN2C(=C1C(=O)Nc1cccnc1Cl)Nc1ccccc12 [compound 70] | 68 | 3 | 10 | 
O=C1CCN2C(=C1C(=O)Nc1c(F)cc(F)cc1F)Nc1cc(Cl)ccc12 [compound 104] | 13 | 1 | 10 | 
Cc1ccccc1NC(=O)C1=C2Nc3ccccc3N2CCC1=O [compound 31] | 230 | > 30 | 10 | 
COc1ccc(NC(=O)C2=C3Nc4ccccc4N3CCC2=O)cc1OC [compound 8] | 32 | > 30 | > 10 | 
O=C1CCN2C(=C1C(=O)NCCc1ccccc1)Nc1ccccc12 [compound 2] | 280 | 10 to 30 | > 10 | 
Cc1cccc2c1NC1=C(C(=O)Nc3ccccc3F)C(=O)CCN12 [compound 94] | 96 | 1 | < 10 | 
O=C1CCN2C(=C1C(=O)Nc1ccc3cn[nH]c3c1)Nc1ccccc12 [compound 48] | 350 | > 30 | 10 | 
CN(C)c1ccc(NC(=O)C2=C3N(C)c4ccccc4N3CCC2=O)cc1 [compound 124] |  |  |  | IC50 ([1]; Table 3): 29 nM; ED50 [2, 7]: 1 to 3 mg/kg; minimal effective dose [3, 8]: 10 mg/kg
N#Cc1ccc(NC(=O)C2=C3Nc4ccccc4N3CCC2=O)cc1 [compound 54] | 13000 | > 10 | < 10 | 
O=C1CCN2C(=C1C(=O)Nc1ccc(F)cc1F)N(Cc1ccccc1)c1ccccc12 [compound 129] |  |  |  | IC50 ([1]; Table 3): 12 nM; ED50 [2, 7]: 1 mg/kg; minimal effective dose [3, 8]: > 10 mg/kg
CN1C2=C(C(=O)Nc3ccccc3)C(=O)CCN2c2ccccc21 [compound 120] |  |  |  | IC50 ([1]; Table 3): 6 nM; ED50 [2, 7]: < 1 mg/kg; minimal effective dose [3, 8]: < 1 mg/kg
O=C1CCN2C(=C1C(=O)Nc1ccc(F)cc1)Nc1ccccc12 [compound 45] | 430 | > 30 | 10 | 
O=C1CCN2C(=C1C(=O)Nc1ccc(Br)cc1)Nc1ccccc12 [compound 44] | 130 | 3 | > 10 | 
CSc1cnccc1NC(=O)C1=C2Nc3ccccc3N2CCC1=O [compound 66] | 3300 | 10 | 10 | 
CCCN1C2=C(C(=O)Nc3ccc(F)cc3F)C(=O)CCN2c2ccccc21 [compound 131] |  |  |  | IC50 ([1]; Table 3): 2.6 nM; ED50 [2, 7]: 0.3 mg/kg; minimal effective dose [3, 8]: < 1 mg/kg
O=C1CCN2C(=C1C(=O)Nc1ccncc1)Nc1cc(Cl)ccc12 [compound 82] | 380 | 3 | > 10 | 
O=C1CCN2C(=C1C(=O)Nc1ccccc1F)Nc1cc(Cl)ccc12 [compound 113] | 5 | 1 | < 10 | 
O=C1CCN2C(=C1C(=O)Nc1c(F)cccc1F)Nc1ccccc12 [compound 36] | 2.8 | 1 | 0.1 | 
CN(C)c1ccc(NC(=O)C2=C3N(C)c4ccccc4N3CCCC2=O)cc1 [compound 150] |  |  |  | IC50 ([1]; Table 5): 3100 nM; ED50 [2, 9]: > 10 mg/kg; minimal effective dose [3, 10]: > 10 mg/kg
O=C1CCN2C(=C1C(=O)Nc1c(Cl)cccc1Cl)Nc1ccccc12 [compound 14] | 320 | 30 | > 10 | 
O=C(Nc1ccccc1)c1c(=O)ccn2c1[nH]c1ccccc12 [compound 138] |  |  |  | IC50 ([1]; Table 4): 24 nM; ED50 [2, 11]: 0.5 mg/kg; minimal effective dose [3, 12]: 1 to 10 mg/kg

SMILES | IC50 [1, 4] [nM] | ED50 [2, 5] [mg/kg] | minimal effective dose [3, 6] [mg/kg] | other results
O=C1CCN2C(=C1C(=O)NCc1ccccc1)Nc1ccccc12 [compound 32] | 38 | > 30 | > 10 | 
O=C1CCN2C(=C1C(=O)Nc1cnccn1)Nc1ccccc12 [compound 63] | 360 | > 10 | > 10 | 
CN(C)c1ccc(NC(=O)C2=C3N(CCCC2=O)c2ccccc2N3Cc2ccccc2)cc1 [compound 151] |  |  |  | IC50 ([1]; Table 5): 12400 nM; ED50 [2, 9]: > 10 mg/kg; minimal effective dose [3, 10]: > 10 mg/kg
CN(C)CCc1ccc(NC(=O)C2=C3Nc4ccccc4N3CCC2=O)cc1 [compound 115] | 110 | > 30 | 30 | 
CN(C)c1cccc(NC(=O)C2=C3Nc4ccccc4N3CCC2=O)c1 [compound 34] | 37 | 4 | > 10 | 
O=C(Nc1c(F)cccc1F)c1c(=O)ccn2c1[nH]c1ccccc12 [compound 141] |  |  |  | IC50 ([1]; Table 4): < 1 nM; ED50 [2, 11]: < 0.1 mg/kg; minimal effective dose [3, 12]: 0.3 mg/kg
O=C1CCN2C(=C1C(=O)Nc1ncc[nH]1)Nc1ccccc12 [compound 99] | 185 | > 30 | > 10 | 
Cc1nnc(NC(=O)C2=C3Nc4ccccc4N3CCC2=O)s1 [compound 64] | 1100 | > 10 | > 10 | 
CCCCNC(=O)C1=C2Nc3ccccc3N2CCC1=O [compound 38] | 54 | > 10 | > 10 | 
Cc1cnccc1NC(=O)C1=C2Nc3ccccc3N2CCC1=O [compound 77] | 7100 | > 10 | > 10 | 
O=C1CCN2C(=C1C(=O)Nc1ccccc1F)Nc1cc(F)ccc12 [compound 108] | 2 | < 1 | 10 | 
O=C1CCN2C(=C1C(=O)NC1CC1)Nc1ccccc12 [compound 43] | 16 | > 10 | > 10 | 
COc1ccc2c(c1)NC1=C(C(=O)Nc3ccncc3)C(=O)CCN12 [compound 57] | 500 | > 10 | > 10 | 
O=C1CCCN2C(=C1C(=O)Nc1ccccc1)N(Cc1ccccc1)c1ccccc12 [compound 145] |  |  |  | IC50 ([1]; Table 5): 420 nM; ED50 [2, 9]: > 10 mg/kg; minimal effective dose [3, 10]: > 10 mg/kg
CCCN1C2=C(C(=O)Nc3ccccc3)C(=O)CCN2c2ccccc21 [compound 136] |  |  |  | IC50 ([1]; Table 3): 2.5 nM; ED50 [2, 7]: 1 mg/kg; minimal effective dose [3, 8]: 10 mg/kg
CN1C2=C(C(=O)Nc3ccccc3F)C(=O)CCN2c2ccccc21 [compound 122] |  |  |  | IC50 ([1]; Table 3): < 1 nM; ED50 [2, 7]: 0.03 mg/kg; minimal effective dose [3, 8]: 0.03 mg/kg
O=C1CCN2C(=C1C(=O)Nc1ccnc(Cl)c1)Nc1ccccc12 [compound 52] | 1400 | > 10 | > 10 | 
CCN1C2=C(C(=O)Nc3ccccc3F)C(=O)CCN2c2ccccc21 [compound 123] |  |  |  | IC50 ([1]; Table 3): 2.1 nM; ED50 [2, 7]: 0.01 mg/kg; minimal effective dose [3, 8]: 0.3 mg/kg
Nc1ccccc1NC(=O)C1=C2Nc3ccccc3N2CCC1=O [compound 47] | 50 | 3 | 10 | 
O=C1CCN2C(=C1C(=O)Nc1cccc3ccoc13)Nc1ccccc12 [compound 51] | 120 | > 10 | 10 | 
O=C1CCN2C(=C1C(=O)Nc1ccc3ncccc3c1)Nc1ccccc12 [compound 41] | 130 | > 30 | > 10 | 
O=C1CCCN2C(=C1C(=O)Nc1ccccc1)Nc1ccccc12 [compound 143] |  |  |  | IC50 ([1]; Table 5): 104 nM; ED50 [2, 9]: > 10 mg/kg; minimal effective dose [3, 10]: 10 mg/kg
O=C1CCCN2C(=C1C(=O)Nc1ccncc1)Nc1ccccc12 [compound 152] |  |  |  | IC50 ([1]; Table 5): 1460 nM; ED50 [2, 9]: > 10 mg/kg; minimal effective dose [3, 10]: < 10 mg/kg
